According to patent US6130228A, “Polycyclic compounds” (priority 1995, dated 2000):
pIC50: −log10 of the molar value. Read-outs that look alike come from different tables or passages of the source.

Legend:
[1] = system: noradrenaline (NA) uptake; assay: Monoamine Uptake Inhibition Assay, noradrenaline (synaptosomal preparation); assay type: biochemical, rat (Sprague Dawley)
Protocol: (§1) One male rat (Sprague Dawley) weighing approx. 200-250 g was sacrificed by cervical dislocation. The brain was dissected out and the cerebellum discarded. The brain was then weighed and 10 ml ice cold sucrose (0.32M) added per gram tissue. […] The pellet was discarded and the supernatant retained (crude synaptosomal preparation).
(§2) All tubes were set up in triplicate. […] 100 μl of the prepared synaptosomal preparation was added to each tube and incubated for 5 minutes in a shaking water bath at 37° C. Any reaction was stopped by plunging the tubes into an ice water bath. ^3 H NA (10^-7 M) or ^3 H 5-HT ([…]) was added to each tube and incubated for 5 minutes in a shaking water bath at 37° C. Any reaction was stopped by plunging the tubes into an ice-water bath. Accumulated monoamines were collected using a Brandell Cell Harvester under mild vacuum. Filters were rinsed (2×) using 4 ml of ice-cold 0.9% saline. Scintillation fluid was added (4 ml/tube). Radioactivity was measured on a scintillation counter.
(§3) Non-specific values were subtracted from total values. The control was taken as 100%. Drug effects were calculated as a percentage of control inhibitor value. A graph of log of drug concentration versus % control was plotted and IC50 values were calculated by interpolation.

[2] = molecular target: T1, Butyrylcholinesterase (BChE) (Equus caballus, UniProt P81908); assay: biochemical; details: for pIC50: Table 2, read-out: BChE IC50
T1 construct: purchased Sigma c-7512
T1 sequence (P81908 whole entry): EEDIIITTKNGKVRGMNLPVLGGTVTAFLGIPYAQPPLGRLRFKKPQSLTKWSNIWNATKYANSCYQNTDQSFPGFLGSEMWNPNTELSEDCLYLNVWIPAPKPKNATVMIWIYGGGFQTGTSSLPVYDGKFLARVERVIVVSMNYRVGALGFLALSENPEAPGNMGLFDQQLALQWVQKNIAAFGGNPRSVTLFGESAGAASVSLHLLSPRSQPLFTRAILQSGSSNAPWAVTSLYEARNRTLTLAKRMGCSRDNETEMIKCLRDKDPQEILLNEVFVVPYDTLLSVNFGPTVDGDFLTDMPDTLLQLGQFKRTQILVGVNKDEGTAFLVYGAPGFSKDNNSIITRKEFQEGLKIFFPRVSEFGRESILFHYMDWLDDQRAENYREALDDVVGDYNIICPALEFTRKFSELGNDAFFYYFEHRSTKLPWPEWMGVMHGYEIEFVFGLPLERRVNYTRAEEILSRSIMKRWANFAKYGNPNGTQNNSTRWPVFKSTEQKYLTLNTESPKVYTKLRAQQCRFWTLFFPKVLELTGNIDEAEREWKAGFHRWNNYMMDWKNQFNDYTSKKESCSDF
Protocol: The following components were utilised:
Phosphate Buffer (0.1M, pH 7.4)
Made up to 500 ml with distilled H2 O, pH 7.4
1 ml of enzyme solution (i), was incubated with 2 ml PDS for 60 minutes at 0° C.
Components of the assay blank, controls and test solutions are provided below:
0.9 ml phosphate buffer (0.1M, pH 7.4)
0.85 ml phosphate buffer (0.1 M, pH 7.4)
0.05 ml Acetylthiocholine (5.2 mM)
(§4) 0.8 ml phosphate buffer (0.1M, pH 7.4)
Control was taken as 100%. Inhibitor was calculated as a percentage of control. A graph of Log of inhibitor conc. versus % control was plotted and IC50 values calculated by interpolation.

5-HT (serotonin) uptake = assay type: biochemical, rat (Sprague Dawley)
Protocol: as §1, §2, §3

[3] = molecular target: T2, Acetylcholinesterase (AChE) (Rattus norvegicus, UniProt P37136); assay: biochemical; assay type: biochemical, Male Rats (Sprague Dawley), brain
T2 construct: The brain was removed and homogenised; from tissue; host or cells: rat brain (male Sprague Dawley), Triton X100 detergent supernatant of the EDTA-buffer pellet
T2 sequence (P37136 32-614): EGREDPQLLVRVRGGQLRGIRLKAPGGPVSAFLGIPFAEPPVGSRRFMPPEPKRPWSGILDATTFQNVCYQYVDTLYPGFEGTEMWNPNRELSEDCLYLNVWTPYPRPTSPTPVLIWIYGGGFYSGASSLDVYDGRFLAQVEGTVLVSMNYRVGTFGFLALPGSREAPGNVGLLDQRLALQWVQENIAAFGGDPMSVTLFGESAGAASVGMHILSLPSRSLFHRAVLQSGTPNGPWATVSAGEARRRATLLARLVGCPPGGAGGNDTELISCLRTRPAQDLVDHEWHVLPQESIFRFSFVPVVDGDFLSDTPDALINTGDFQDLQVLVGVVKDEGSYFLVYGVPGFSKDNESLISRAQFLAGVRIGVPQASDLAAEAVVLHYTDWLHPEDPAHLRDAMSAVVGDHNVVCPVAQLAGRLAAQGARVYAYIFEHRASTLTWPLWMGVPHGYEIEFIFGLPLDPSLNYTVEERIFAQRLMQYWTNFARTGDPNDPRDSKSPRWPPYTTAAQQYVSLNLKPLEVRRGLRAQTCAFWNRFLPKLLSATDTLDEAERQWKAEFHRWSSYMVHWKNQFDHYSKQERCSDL
Protocol: (i) Enzyme Source for AChE
5 Male Rats (Sprague Dawley) weighing approx 250 g were killed by CO2 overdose and cervical dislocation.
The brain was removed and homogenised (9 strokes at 840 rpm with 4 volumes of phosphate buffer pH 7.4+10 mM (EDTA) and centrifuged at 27,000 g for 30 minutes.
The supernatant was discarded and the pellet resuspended in phosphate buffer with 10 mM EDTA+1- Triton X100 (2 ml/g wet weight). The crude homogenate was centrifuged at 27,000 g for 30-40 minutes.
The pellet was discarded and the supernatant was dispensed into 0.5 ml aliquots and stored at -20° C. until required.
Phosphate Buffer (0.1M. pH 7.4)
Made up to 500 ml with distilled H2 O, pH 7.4.
0.5 ml aliquots of brain (enzyme solution) as prepared above were thawed out. 2 ml of phosphate buffer was added to each aliquot. 2 ml of the enzyme solution was incubated with 2 ml PDS for 60 minutes at 0° C. The composition of blank, control and test solutions are given below:
0.9 ml phosphate buffer (0.1 M, pH 7.4)
0.85 ml phosphate buffer (0.1M, pH 7.4)
0.05 ml acetylthiocholine (5.2 mM)
as §4
0.05 ml Acetylthiocholine 5.2 mM
Change in absorbance was measured at 30 second intervals for 3 minutes at […]. The control was taken as 100%. Inhibitor was calculated as a percentage of the control. A graph of Log of inhibitor conc. versus % control was plotted and IC5. values calculated by interpolation.

[4] = Table 3, read-out: NA UPTAKE INHIBITION
[5] = Table 3, read-out: 5-HT UPTAKE INHIBITION

SMILES | NA UPTAKE INHIBITION TACRINE RATIO [1] | pIC50 [1, 4] | BChE TACRINE RATIO [2] | pIC50 [2] | 5-HT UPTAKE INHIBITION TACRINE RATIO (5-HT (serotonin) uptake) | pIC50 (5-HT (serotonin) uptake; [5]) | AChE TACRINE RATIO [3] | pIC50 ([3]; Table 2, read-out: AChE IC50) | pIC50 ([1]; Table 1, form SALT, n = 5, read-out: IC50 NA UPTAKE) | pIC50 (5-HT (serotonin) uptake; Table 1, form SALT, n = 5, read-out: IC50 5HT UPTAKE) | pIC50 ([3]; Table 1, form SALT, ±SEM, n = 5, read-out: IC50 AChE)
Nc1c2c(nc3cc(F)ccc13)CCC2 [Compound 15, 9-amino-6-fluoro-2,3-dihydro-1H-cyclopenta [b] quinoline] | 9.571 | 6.15 | 0.610 | 7.39 | 0.345 | 4.66 | 1.219 | 7.19 |  |  | 
Nc1c2c(nc3ccccc13)CCC2 [Compound 29, 9-Amino-2,3-dihydro-[1H ]-cyclopenta-[b]-quinoline] | 11.167 | 6.22 | 0.481 |  | 0.362 | 4.68 | 1.393 | 7.25 |  |  | 
Nc1c2c(nc3ccccc13)-c1ccccc1C2 [Compound 2, 6-Amino-4,5-benzo-[5H]-cyclopenta-[1,2-b]-quinoline] |  |  |  |  |  |  |  |  | 5.64 | 5.66 | 6.46
Cc1ccc2nc3c(c(N)c2c1)CCC3 [Compound 24, 9-Amino-7-methyl-2,3-dihydro-1H-cyclopenta [1,2-b] quinoline] |  |  | 0.023 | 5.96 | 0.447 | 4.77 | 0.012 | 5.17 |  |  | 
Cc1ccc2c(N)c3c(nc2c1C)CCC3 [Compound 26, 9-Amino-5,6-dimethyl-2,3-dihydro-1H-cyclopenta [1,2-b] quinoline] |  |  | 0.003 | 5.04 | 1.727 | 5.36 | 0.007 | 4.94 |  |  | 
Cc1cc(C)c2nc3c(c(N)c2c1)CCC3 [Compound 23, 9-Amino-5-7-Dimethyl-2,3-dihydro-1H-cyclopenta [1,2-b] quinoline] |  |  |  | 4.28 | 0.962 | 5.10 | 0.004 | 4.72 |  |  | 
Nc1c2c(nc3ccc(Br)cc13)CCC2 [Compound 25, 9-Amino-7-bromo-2,3-dihydro-1H-cyclopenta-[1,2-b] quinoline] |  |  | 0.013 | 5.72 | 1.434 | 5.28 | 0.008 | 5.00 |  |  | 
Cc1ccc(C)c2c(N)c3c(nc12)CCC3 [Compound 20, 9-Amino-5,8-dimethyl-2,3-dihydro-1H -cyclopenta [1,2-b] quinoline] |  |  | 0.018 | 5.85 | 1.949 | 5.41 | 0.041 | 5.72 |  |  | 
Nc1c2c(nc3cc(F)c(F)cc13)CCC2 [Compound 8, 9-amino-6,7-difluoro-2,3-dihydro-1H -cyclopenta [1,2-b] quinoline] |  |  | 0.003 | 5.00 | 3.800 | 5.70 | 2.229 | 7.46 |  |  | 
Nc1c2c(nc3ccc(F)c(F)c13)CCC2 [Compound 10, 9-Amino-7,8-difluoro-2,3-dihydro-1-H-cyclopenta-[1,2-b] quinoline] |  |  | 0.002 | 4.82 | 0.029 | 3.59 | 0.190 | 6.39 |  |  | 
Nc1c2c(nc3cc(Cl)ccc13)CCC2 [Compound 17, 9-amino-6-chloro-2,3-dihydro-1H-cyclopenta[b] quinoline] |  |  | 0.19 | 6.89 | 5.067 | 5.82 | 8.041 | 8.00 |  |  | 
